Measurements as given in article PMC6715681, “A high-throughput screen to identify novel synthetic lethal compounds for the treatment of E-cadherin-deficient cells” (Scientific Reports, 2019).

Tested on: MCF10A WT and MCF10A CDH1^−/− cells
Experiment: Single-point confirmation screen (10 μM, CTB, 384-well), viability differential between isogenic lines
Type: cell-based, human
Settings: averaged between three biological replicates, Supplementary Table 2
Procedure: In the single-point confirmation screen, compounds that preferentially harm MCF10A CDH1^−/− cells compared to the wild-type cells were now identified. Three biological replicates were performed for each of the isogenic cell lines at a single-point (10 μM) in 384-well plates. All assay plates had acceptable Z’ values above 0.4 and 23 out of 48 plates had values above 0.6. The POC R^2 correlation between the three biological replicates for the two isogenic cell lines were all above 0.8 (data not shown). A cell viability differential of ‘MCF10A WT POC – MCF10A CDH1^−/− POC’ was used to select hits. An arbitrary threshold for the mean differential of >8.5% was chosen in order to maximize the number of hits being screened in the subsequent stages and to reduce false negatives.
To incorporate a measure of the variability between replicates of the screen into the hit selection process, a further requirement was included of a minimum of 2/3 biological replicates having viability differentials >8.5%. This removed a further 52 compounds shown in blue with only one out of three biological replicates crossing the Y = X-8.5 line independent of the mean. In total, 256 compounds were above the hit selection threshold, thereby preferentially killing E-cadherin negative cells. The mean POC differential of the 256 hits was 17.6% +/− 7.1 (+/−SD), with the highest being 48% for SLEC-1 (Synthetic Lethal E-Cadherin compound 1). […] The resulting 256 SL compounds were then assayed in an 11-point screen for EC50 determination.
MCF10A WT and MCF10A CDH1^−/− cells were seeded into Corning black walled, clear bottom 384-well plates (assay plates) using a multidrop 384 reagent dispenser (Thermo Fisher Scientific) and a total volume of 50 μL per well.
As we have shown MCF10A CDH1^−/− cells have a prolonged lag to log phase growth of around 24 hours, in order to achieve a similar confluence at 72 hours post seeding MCF10A WT and MCF10A CDH1^−/− cell lines were seeded at 600 cells/well and 800 cells/well, respectively. […] At 72 hours post seeding, plates were removed from the incubator and left for 30 minutes at RT to equalise the temperature across all wells of the plates and reduce fluorescence-based edge effects before reading on an EnVision (PerkinElmer) at 550 nm excitation and 590 nm emission to quantify cell viability.
The coRFU values were then used to calculate the normalized readouts of percent of controls (Eq. 3) and the robust Z score (Eqs 4,5), where doxorubicin refers to an EC80 dose and DMSO was 0.2% v/v.3 coPOC=100×(SamplecoRFU−x¯doxorubicincoRFU)/(x¯DMSOcoRFU−x¯doxorubicincoRFU) 4 MAD=median([…]) 5 CorrectedrobustZscore=(SamplecoRFU−platemediancoRFU)/MAD

## COc1ccc2nc(C)cc(NCc3ccc(F)cc3)c2c1 [SLEC-11, N-(4-Fluorobenzyl)-6-methoxy-2-methylquinolin-4-amine]
  Differential at 1-pt: 17.42
